One assay has as its target T1, JAK3 (Homo sapiens, UniProt P52333).
T1 sequence (P52333 1-1124): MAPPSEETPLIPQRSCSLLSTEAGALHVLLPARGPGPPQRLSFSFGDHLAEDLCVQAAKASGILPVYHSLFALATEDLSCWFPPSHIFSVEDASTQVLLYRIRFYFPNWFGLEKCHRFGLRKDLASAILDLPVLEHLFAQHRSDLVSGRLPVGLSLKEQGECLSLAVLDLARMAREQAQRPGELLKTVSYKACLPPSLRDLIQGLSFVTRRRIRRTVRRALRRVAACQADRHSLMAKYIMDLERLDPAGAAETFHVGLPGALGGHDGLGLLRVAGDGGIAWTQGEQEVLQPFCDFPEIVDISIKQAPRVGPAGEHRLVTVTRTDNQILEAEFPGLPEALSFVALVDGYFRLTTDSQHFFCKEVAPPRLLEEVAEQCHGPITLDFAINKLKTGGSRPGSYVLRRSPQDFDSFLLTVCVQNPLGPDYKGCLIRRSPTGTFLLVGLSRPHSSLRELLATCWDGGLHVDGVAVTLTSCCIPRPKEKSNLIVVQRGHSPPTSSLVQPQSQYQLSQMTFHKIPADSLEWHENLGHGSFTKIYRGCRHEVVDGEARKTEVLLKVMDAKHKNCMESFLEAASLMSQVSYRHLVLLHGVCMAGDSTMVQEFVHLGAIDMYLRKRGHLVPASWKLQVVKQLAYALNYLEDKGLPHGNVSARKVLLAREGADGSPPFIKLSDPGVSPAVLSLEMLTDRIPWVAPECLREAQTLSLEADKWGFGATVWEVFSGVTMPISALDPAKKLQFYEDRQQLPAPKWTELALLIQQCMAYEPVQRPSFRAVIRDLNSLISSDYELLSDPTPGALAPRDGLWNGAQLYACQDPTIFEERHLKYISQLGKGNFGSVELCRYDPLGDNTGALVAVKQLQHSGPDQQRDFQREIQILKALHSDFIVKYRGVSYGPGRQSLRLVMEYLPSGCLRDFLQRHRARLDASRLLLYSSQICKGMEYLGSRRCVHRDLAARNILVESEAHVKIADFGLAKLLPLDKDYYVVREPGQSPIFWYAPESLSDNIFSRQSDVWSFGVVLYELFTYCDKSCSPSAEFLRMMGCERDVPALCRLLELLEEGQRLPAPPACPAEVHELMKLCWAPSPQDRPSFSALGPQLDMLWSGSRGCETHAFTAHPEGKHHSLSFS
Briefly: In vitro JAK3 inhibition, biochemical IC50 (no preincubation). The conditions noted are these: Table 8. As for the experimental part: (§1) In vitro BTK and JAK3 inhibition studies are shown in Table 7 and Table 8 (no preincubation).

A further assay relates to RL cells. Briefly: IC50 of Ibrutinib analogs against human cancer cells, RL cells (Table 14). In kind it is cell-based. The conditions noted are these: Homo sapiens, RL.
Assay [1] deals with normal pooled human fibroblasts. Description: IC50 of Ibrutinib analogs against normal human cells, pooled human fibroblasts (Table 14). The assay is classed as cell-based. The conditions noted are these: Fibroblast, TABLE 9. How it is done: Anti-cancer efficacy of exemplary compounds of this application is assessed in vitro in different cancer cell lines. Cell viability is examined following treatment at various concentration of inhibitor (0.097656-50 μM) using a cell Titer-Blue cell viability assay. 1×10^4 cells (NHF cells)/well are plated in 96-well assay plates in culture medium. All cells are grown in DMEM, IMDM and RPMI-1640 supplemented with 10% FBS. After 24 hrs, test compounds and vehicle controls are added to appropriate wells so the final volume is […] in each well. The cells are cultured for the desired test exposure period (72 hrs) at 37° C. and 5% CO2. The assay plates are removed from 37° C. incubator and 20 μl/well of CellTiter-Blue® Reagent is added. The plates are incubated using standard cell culture conditions for 1-4 hours and the plates are shaken for 10 seconds and record fluorescence at 560/590 nm.
Therapeutic index=(IC50 human fibroblasts/IC50 RLcells)

For a further assay, the target named is FGFR1 (Homo sapiens, UniProt P11362). Briefly: In vitro kinase inhibition studies (Table 9), FGFR1. The assay is classed as biochemical.
The target in another assay is FGFR4 (Homo sapiens, UniProt P22455). Briefly: In vitro kinase inhibition studies (Table 9), FGFR4. In kind it is biochemical.
Assay [2] has as its target T2, BTK (Homo sapiens, UniProt Q06187). Briefly: Total BTK degradation assay (Total BTK-HTRF) in RAMOS cells. In kind it is cell-based. For orientation: Time-resolved FRET reads energy transfer from a long-lived donor to a nearby acceptor.
Method: A Total BTK-HTRF assay (Cisbio Total BTK cat #63ADK064PEG) was performed to quantitate the ability of test compounds to degrade BTK protein levels in RAMOS cells. This total protein assay monitors the steady state protein level in a sandwich assay format using two different specific antibodies after lysis of the cell-membrane. The antibodies recognise two different epitopes on BTK and are labelled with Eu3^+-cryptate (donor) and d2 (acceptor). […] The specific signal modulates positively in proportion to the total concentration of BTK.
In order to evaluate the degradation of BTK by test compounds, a total BTK degradation assay was performed (Cisbio Total BTK cat #63ADK064PEG). The frozen stock solutions of the two different BTK antibodies were diluted 20-fold with the detection buffer and pre-mixed before use in the assay. Supplemented lysis buffer (4×) was prepared by diluting the blocking reagent solution 25-fold with lysis buffer (4×) and mixing gently.
were plated at a density of 50K cells/well (8 uL) in RPMI medium with 10% FBS into 384-well white detection plates. […] The plate was read on an Biotek Synergy Neo2 plate reader using 330 nm excitation, 620 nm-donor emission and 670 nm-acceptor emission.
The target of assay [3] is T2, BTK. Description: In vitro BTK inhibition, biochemical IC50 (no preincubation). The conditions noted are these: Table 8. As for the experimental part:
IC50 Values (nM) for the Inhibition of BTK Activity
as §1

Assay [4] addresses T2, BTK. Briefly: BTK washout experiment (residual activity after 400-fold dilution). The conditions noted are these: 6-h incubation of 50 nM BTK with 177 nM compound, relative to DMSO alone. The assay is classed as biochemical. As for the experimental part:
After a 3-h incubation of 40 nM BTK in the presence of 296 nM of compound Compound 5-1, a 400-fold dilution was performed to remove excess inhibitor.
By way of contrast, a “washout” experiment performed with ARQ-531 gives a very different result, because this compound lacks a warhead and is known to inhibit BTK reversibly. After a 6-h incubation of 50 nM BTK in the presence of 177 nM of ARQ-531, a 400-fold dilution was performed to remove excess inhibitor. […] This indicates to one of ordinary skill in the art that the enzyme was not inhibited irreversibly during the incubation with ARQ-531.

The record followed here is patent US20230055961A1, “PENTAFLUOROBENZENESULFONAMIDE DERIVATIVES AND USES THEREOF” (Dunad Therapeutics Ltd., priority 2019, published 2023).

The structures appear in SMILES notation. Where two headings read alike, the source gives them in different places.

For orientation: IC50 means the concentration needed to halve the response being measured.

T2 sequence (Q06187 whole entry, species assumed): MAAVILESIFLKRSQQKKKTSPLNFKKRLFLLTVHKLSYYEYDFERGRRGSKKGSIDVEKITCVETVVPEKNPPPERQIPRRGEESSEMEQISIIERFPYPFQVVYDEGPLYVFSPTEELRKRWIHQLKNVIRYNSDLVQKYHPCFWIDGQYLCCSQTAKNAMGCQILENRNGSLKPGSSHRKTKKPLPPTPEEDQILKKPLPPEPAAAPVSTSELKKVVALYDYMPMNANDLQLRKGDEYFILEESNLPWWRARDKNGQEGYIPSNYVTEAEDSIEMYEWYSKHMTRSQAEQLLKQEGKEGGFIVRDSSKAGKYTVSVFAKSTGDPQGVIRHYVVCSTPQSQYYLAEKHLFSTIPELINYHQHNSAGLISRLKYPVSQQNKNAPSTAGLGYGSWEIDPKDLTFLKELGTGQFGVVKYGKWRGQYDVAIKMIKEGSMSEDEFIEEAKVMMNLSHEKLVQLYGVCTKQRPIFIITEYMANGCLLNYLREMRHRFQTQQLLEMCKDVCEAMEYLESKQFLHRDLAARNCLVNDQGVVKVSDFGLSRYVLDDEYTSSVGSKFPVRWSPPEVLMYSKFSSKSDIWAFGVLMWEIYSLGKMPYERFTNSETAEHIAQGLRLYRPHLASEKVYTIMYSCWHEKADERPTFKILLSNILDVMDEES
FGFR1, sequence (P11362 22-822, species assumed): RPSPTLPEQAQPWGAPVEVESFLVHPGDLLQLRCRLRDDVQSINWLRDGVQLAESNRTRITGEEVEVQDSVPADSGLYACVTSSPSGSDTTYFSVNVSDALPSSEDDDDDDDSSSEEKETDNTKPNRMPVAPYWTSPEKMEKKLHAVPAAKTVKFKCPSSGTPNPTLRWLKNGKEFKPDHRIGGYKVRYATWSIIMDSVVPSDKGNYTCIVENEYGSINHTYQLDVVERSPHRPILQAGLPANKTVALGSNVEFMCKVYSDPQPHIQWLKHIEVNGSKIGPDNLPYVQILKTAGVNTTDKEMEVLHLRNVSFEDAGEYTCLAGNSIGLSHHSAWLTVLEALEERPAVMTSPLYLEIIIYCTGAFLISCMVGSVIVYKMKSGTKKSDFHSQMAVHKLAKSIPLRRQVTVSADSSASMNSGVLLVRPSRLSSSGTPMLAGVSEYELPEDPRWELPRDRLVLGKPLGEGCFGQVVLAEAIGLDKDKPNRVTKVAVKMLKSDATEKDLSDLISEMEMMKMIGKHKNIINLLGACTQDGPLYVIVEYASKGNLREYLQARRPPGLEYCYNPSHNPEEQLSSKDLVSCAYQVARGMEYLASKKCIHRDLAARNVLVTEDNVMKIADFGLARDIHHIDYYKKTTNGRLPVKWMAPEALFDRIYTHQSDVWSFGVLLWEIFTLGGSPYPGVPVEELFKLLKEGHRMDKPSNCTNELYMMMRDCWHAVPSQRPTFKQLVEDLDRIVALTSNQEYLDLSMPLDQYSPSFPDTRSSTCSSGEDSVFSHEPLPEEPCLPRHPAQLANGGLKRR
FGFR4, sequence (P22455 22-802, species assumed): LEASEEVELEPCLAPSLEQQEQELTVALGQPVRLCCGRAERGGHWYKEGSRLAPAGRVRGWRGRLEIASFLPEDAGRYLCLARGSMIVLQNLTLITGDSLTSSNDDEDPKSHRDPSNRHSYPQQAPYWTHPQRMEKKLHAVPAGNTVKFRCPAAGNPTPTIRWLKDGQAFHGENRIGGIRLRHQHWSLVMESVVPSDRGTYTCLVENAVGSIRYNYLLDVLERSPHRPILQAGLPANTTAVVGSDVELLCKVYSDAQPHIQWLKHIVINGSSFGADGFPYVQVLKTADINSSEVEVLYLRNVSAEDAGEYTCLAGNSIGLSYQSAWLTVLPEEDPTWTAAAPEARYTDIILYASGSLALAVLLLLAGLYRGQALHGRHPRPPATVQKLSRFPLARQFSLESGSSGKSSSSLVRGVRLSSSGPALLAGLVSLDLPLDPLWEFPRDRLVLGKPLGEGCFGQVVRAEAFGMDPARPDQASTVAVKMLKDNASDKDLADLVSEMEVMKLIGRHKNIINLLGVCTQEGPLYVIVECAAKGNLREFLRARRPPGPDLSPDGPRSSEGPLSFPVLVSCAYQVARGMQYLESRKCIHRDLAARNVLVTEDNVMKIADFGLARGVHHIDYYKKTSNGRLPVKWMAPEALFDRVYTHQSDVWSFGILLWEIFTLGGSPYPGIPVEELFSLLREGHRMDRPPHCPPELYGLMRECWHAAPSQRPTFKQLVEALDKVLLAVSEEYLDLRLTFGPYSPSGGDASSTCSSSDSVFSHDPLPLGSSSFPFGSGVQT
Method for RL cells: 1×10^4 cells (NHF cells)/well are plated in 96-well assay plates in culture medium. […] After 24 hrs, test compounds and vehicle controls are added to appropriate wells so the final volume is 100p in each well. The cells are cultured for the desired test exposure period (72 hrs) at 37° C. and 5% CO2. The assay plates are removed from 37° C. incubator and 20 μl/well of CellTiter-Blue® Reagent is added. The plates are incubated using standard cell culture conditions for 1-4 hours and the plates are shaken for 10 seconds and record fluorescence at 560/590 nm. […] Therapeutic index=(IC50 human fibroblasts/IC50 […] )

As to `O=S(=O)(NCCNc1ncnc2[nH]ccc12)c1c(F)c(F)c(F)c(F)c1F` [Compound 5-10, N-(2-((7H-pyrrolo[2,3-d]pyrimidin-4-yl)amino)ethyl)-2,3,4,5,6-pentafluorobenzene sulfonamide], the “JAK3 (IC50, nM)” value at JAK3 is on record as “E (E: >1000 nM to ≤ 0,000 nM)”.
For `C[C@H]1CC[C@@H](Nc2ncnc3[nH]ccc23)CN1S(=O)(=O)c1c(F)c(F)c(F)c(F)c1F` [Compound 5-8, N-((3R,6S)-6-methyl-1-((perfluorophenyl)sulfonyl)piperidin-3-yl)-7H-pyrrolo[2,3-d]pyrimidin-4-amine], the “JAK3 (IC50, nM)” value on JAK3 is listed as “E (E: >1000 nM to ≤ 0,000 nM)”.
In the case of `C=CC(=O)N1CCC[C@@H](n2nc(-c3ccc(Oc4ccccc4)cc3)c3c(N)ncnc32)C1` [Ibrutinib, reference compound], the half-maximal inhibitory concentration (IC50) in the assay with RL cells (RL cells, read-out: IC50 in RL cells) stood at 10300 nM; in the assay with RL cells (TABLE 9, read-out: RL (IC50)), 10300 nM; in the assay with RL cells (Table 14, RL human non-Hodgkin's lymphoma B cell line, read-out: RL (IC50)), 10300 nM; in assay [1] it was 26800 nM.
For `COCCOc1ccc(Nc2ncc(F)c(Nc3cccc(NS(=O)(=O)c4c(F)c(F)c(F)c(F)c4F)c3)n2)cc1` [Compound 5-15, 2,3,4,5,6-pentafluoro-N-(3-((5-fluoro-2-((4-(2-methoxyethoxy)phenyl)amino)pyrimidin-4-yl)amino)phenyl)benzenesulfonamide], the IC50 fell in the range of 0.1 to 10 nM against FGFR1, 10 to 300 nM against FGFR4 and 100 to 1000 nM at BTK [3]. For the same compound, the “Percent residual BTK after 24 hours with test compound (5 μM)” value on BTK [2] stood at 75%.
As to `O=C(c1ccc(Oc2ccccc2)cc1Cl)c1c[nH]c2ncnc(N[C@@H]3CC[C@@H](CO)OC3)c12` [ARQ-531], the “enzyme activity after washout” value at BTK [4] is on record as “recovered all of its activity”.
With `CN(CCNc1ncnc2[nH]ccc12)S(=O)(=O)c1c(F)c(F)c(F)c(F)c1F` [Compound 5-11, N-(2-((7H-pyrrolo[2,3-d]pyrimidin-4-yl)amino)ethyl)-2,3,4,5,6-pentafluoro-N-methylbenzenesulfonamide], the “JAK3 (IC50, nM)” value at JAK3 is “E (E: >1000 nM to ≤ 0,000 nM)”.
Turning to `COCCOc1ccc(Nc2ncc(F)c(NCCCNS(=O)(=O)c3c(F)c(F)c(F)c(F)c3F)n2)cc1` [Compound 5-7, 2,3,4,5,6-pentafluoro-N-(3-((5-fluoro-2-((4-(2-methoxyethoxy)phenyl)amino)pyrimidin-4-yl)amino)propyl)benzenesulfonamide], the IC50 at FGFR1 and against FGFR4 was 300 to 2000 nM throughout. In addition, the “Percent residual BTK after 24 hours with test compound (5 μM)” value on BTK [2] is given as 63%.
